In patent US10030016B2 (Sunesis Pharmaceuticals, Inc., priority 2009, dated 2018):
Where two headings read alike, the source gives them in different places.

How the values were obtained:
[1] = target: PDK1 (Homo sapiens (Human), UniProt O15530); test: PDK1 kinase assay (coupled PDK1/AKT/FAM-crosstide assay, IMAP fluorescence polarization); format: biochemical
Outline: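 Inhibition is derived by 4-parameter fitting of ΔmP from an IMAP fluorescence polarization read of FAM-crosstide (100 nM) phosphorylation. The cascade ran 30 min at 25 °C with 40 μM ATP, using insect-cell GST-PDK1 51-359 (0.75 nM) driving 10 nM unphosphorylated AKT2 140-467-PIFtide fusion.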

[2] = tested on: phospho-akt (Thr308) in PC-3 cells; test: Inhibition of phospho-akt (Thr308) in PC-3 cells, MSD phospho-akt 308 ELISA kit; format: cell-based; conditions: inhibition of P308 Akt in PC-3 cells using MSD, 2 hours, no serum, read-out: EC50
Outline: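 Serum-free 2 h compound exposure of overnight-seeded PC-3 cells, threefold dilution series; lysates analysed on blocked MSD plates (3% BSA) for Thr308-phosphorylated Akt, normalised between DMSO and 5 μM wortmannin wells.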

[3] = inhibition of phospo-PDK1 in vitro

PDK1, sequence (O15530 51-359): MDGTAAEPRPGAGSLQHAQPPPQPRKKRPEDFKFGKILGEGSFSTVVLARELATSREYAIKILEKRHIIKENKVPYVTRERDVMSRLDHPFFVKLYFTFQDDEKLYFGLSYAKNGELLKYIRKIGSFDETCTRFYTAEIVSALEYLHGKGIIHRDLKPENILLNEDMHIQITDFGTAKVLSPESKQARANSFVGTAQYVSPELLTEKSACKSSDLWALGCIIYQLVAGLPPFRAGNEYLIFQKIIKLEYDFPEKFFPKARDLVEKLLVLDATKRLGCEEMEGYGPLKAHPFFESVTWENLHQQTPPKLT

Row | Compound | IC50 ([1]; inhibition of PDK1 in vitro) | EC50 ([2]; Homo sapiens) | EC50 ([2]; Homo sapiens, PC-3, 2 h) | IC50 [1, 3] | EC50 [2]
1 | Cc1cccc(Cl)c1NC(=O)c1cc(C(F)(F)F)cnc1NCc1ccc(-c2cnc3[nH]nc(N)c3c2)cc1 [Example 438, 2-(4-(3-amino-1H-pyrazolo[3,4-b]pyridin-5-yl)benzylamino)-N-(2-chloro-6-methyl-phenyl)-5-(trifluoro-methyl)nicotinamide] | 1000 to 5000 nM | – | > 10000 nM | – | –
2 | CCC(C)n1cc(-c2ccc(CNc3ncc(C(F)(F)F)cc3C(=O)Nc3ccc(F)cc3)cc2)c2c(N)ncnc21 (stereo not shown) [Example 441, 2-(4-(4-amino-7-sec-butyl-7H-pyrrolo[2,3-d]pyrimidin-5-yl)benzylamino)-N-(4-fluorophenyl)-5-(trifluoromethyl)nicotinamide] | – | > 10000 nM | – | < 100 nM | –
3 | (S)-2-(4-(4-amino-7-methyl- 7H-pyrrolo[2,3-d]pyrimidin- 5-yl)benzylamino)-fluorophenyl) ethyl)nicotinamide [Example 97] | < 100 nM | – | – | – | < 1000 nM

Now from value to compound:

Row | IC50 ([1]; inhibition of PDK1 in vitro) | EC50 ([2]; Homo sapiens) | EC50 ([2]; Homo sapiens, PC-3, 2 h) | IC50 [1, 3] | EC50 [2] | Compound
4 | 1000 to 5000 nM | > 10000 nM | – | – | – | Nc1n[nH]c2ncc(-c3ccc(CNc4ncc(C(F)(F)F)cc4C(=O)N[C@H](CO)c4ccc(Br)cc4)cc3)cc12 [Example 437, (S)-2-(4-(3-amino-1H-pyrazolo[3,4-b]pyridin-5-yl)benzylamino)-N-(1-(4-bromophenyl) 2-hydroxyethyl)-5-(trifluoromethyl)nicotinamide]
5 | < 100 nM | 1000 to 10000 nM | – | – | – | N#Cc1cccc(NC(=O)c2cc(C(F)(F)F)cnc2NCc2ccc(-c3cnc4[nH]nc(N)c4c3)cc2)c1 [Example 439, 2-(4-(3-amino-1H-pyrazolo[3,4-b]pyridin-5-yl)benzylamino)-N-(3-cyanophenyl)-5-(trifluoromethyl) nicotinamide]
6 | 100 to 1000 nM | 1000 to 10000 nM | – | – | – | CN1CCN(Cc2cccc(NC(=O)c3cc(C(F)(F)F)cnc3NCc3ccc(-c4cnc5[nH]nc(N)c5c4)cc3)c2)CC1 [Example 440, 2-(4-(3-amino-1H-pyrazolo[3,4-b]pyridin-5-yl)benzylamino)-N-(3-((4-methylpiperazin-1-yl)methyl)phenyl)-5-(trifluoromethyl)nicotinamide]
7 | – | < 1000 nM | – | < 100 nM | – | CC(C)n1cc(-c2ccc(CNc3ncc(C(F)(F)F)cc3C(=O)Nc3ccc(F)cc3)cc2)c2c(N)ncnc21 [Example 442, 2-(4-(4-amino-7-isopropyl-7H-pyrrolo[2,3-d]pyrimidin-5-yl)benzylamino)-N-(4-fluorophenyl)-5-(trifluoromethyl)nicotinamide]
8 | – | < 1000 nM | – | < 100 nM | – | Nc1ncnc2c1c(-c1ccc(CNc3ncc(C(F)(F)F)cc3C(=O)Nc3ccc(F)cc3)cc1)cn2C1COC1 [Example 443, 2-(4-(4-amino-7-(oxetan-3-yl)-7H-pyrrolo[2,3-d]pyrimidin-5-yl)benzylamino)-N-(4-fluorophenyl)-5-(trifluoromethyl)nicotinamide]
